# Earlier results in patent US20070248696A1, “Composition and method for enhancing neuromuscular facilitation and cognitive functions” (priority 2006, published 2007).
# Assays:
# [1] = in vivo
# [2] = relative to vitamin E
# [3] = relative to vitamin E; remark: listed apart in the source
Structure (SMILES),motor performance and coordination in the rotorod and open field tests [1],more potent than vitamin E in reducing oxidation [2],more powerful than vitamin E in neutralizing pro-oxidants and free radicals that attack lipids [3]
"C[N+](C)(C)CCOP(=O)(O)OP(=O)([O-])OC[C@H]1O[C@@H](n2ccc(N)nc2=O)[C@H](O)[C@@H]1O [CDP-choline, cytidine 5′-diphosphocholine]",improves motor performance and coordination,–,–
"O=C(O[C@@H]1Cc2c(O)cc(O)cc2O[C@@H]1c1cc(O)c(O)c(O)c1)c1cc(O)c(O)c(O)c1 [EGCG, (−)-epigallocatechin-3-gallate]",–,20 times,over 200 times
